Measured values published in US6723897B2, “Methods for controlling gibberellin levels” (Monsanto Technology, LLC, priority 1998, dated 2004).

How the values were obtained:
wild-type A3237 soybean = assay: Hilum treatment of soybean seeds, seedling growth and development, wild-type soybean; assay type: in vivo, Glycine max; parameters: key to Emergence timing / Hypocotyl length (6 DAP) / 1st internode length (12 DAP) / 3rd internode length (20 DAP): pos: emergence faster/stem segment longer than controls; 0: emergence timing/stem segment length similar to controls; neg: emergence slower/stem segment shorter than controls; settings: for Lowest rate where biological activity is observed, 1st internode length (10 DAP) / Lowest rate where biological activity is observed, emergence timing / Lowest rate where biological activity is observed, hypocotyl length (5 DAP): rate response; for 1st internode length (12 DAP) / Emergence timing / Hypocotyl length (6 DAP): single rate per compound 8.3-16.5 μg/seed
Procedure: (§1) In the previous experiments, the effect of various GA compounds on transgenic, GA-deficient and wild-type soybean is evaluated by treating seeds with these compounds via imbibition. Several of these compounds are not completely soluble in water, which limited the interpretation of their utility in rescuing GA-deficient dwarf plants. The purpose of this experiment is to reevaluate selected, previously tested compounds, and additional compounds, by introducing them to the seed via the hilum. As shown by the results presented below, direct application of small quantities of GA compounds dissolved in an organic solvent to the hilum is an effective method of treating soybean seeds. As in the previously described experiments, comparison is made between activity on GA-deficient soybean seedlings and normal (wild-type) seedlings. […] soybean seeds are supplied by Asgrow Seed Company (Des Moines, Iowa). Seed of GA-deficient transgenic soybean line 719 is created by transformation of […] soybean with pMON29801 (FMV/antisense CPScc). Fifth generation seed (R5) is used for these experiments. […] When multiple droplets are applied, each 1 μl droplet is allowed to dry before subsequent droplets are added. Ethanol minus compound is used a treatment control. […] (29° C.) and 75° F. (24° C.), respectively. Emergence timing is measured by counting the number of emerged seedlings at different times after planting. Emergence is defined as the presence of cotyledons raised to soil level or above. […] To assess the ability of a seed treatment to deliver biological activity beyond the first internode, measurements are taken on selected treatments after prolonged growth and development.

[1] = tested on: constitutively GA-deficient transgenic dwarf soybean line 719; assay: Experiment I greenhouse test, seed imbibition, GA-deficient soybean; assay type: in vivo, Glycine max; parameters: Observation on Transgenic Line 719: key: −1: treated plants are shorter as compared to untreated plants; 0: treated plants had the same stature as untreated plants; 1: treated plants are slightly elongated as compared to untreated plants; 2: treated plants are moderately elongated as compared to untreated plants; 3: treated plants are highly elongated as compared to untreated plants; 4: treated plants are extremely elongated as compared to untreated plants; settings: 0.25 mg/ml; for effect in both the constitutive transgenic dwarf and wild-type soybean lines: imbibition, lines 719 and A3237; for Observation on Transgenic Line 719: seeds imbibed 5 hours
Excerpt: Seeds are covered with 0.5″ of vermiculite.

[2] = tested on: constitutively GA-deficient transgenic dwarf soybeans (line 719); assay: Summary of first two greenhouse experiments, rescue of GA-deficient soybeans; assay type: in vivo, Glycine max; parameters: key: +: transgenic soybeans are rescued; 0: transgenic soybeans are not rescued; settings: 0.25 mg/ml solution (ethanol-water)
Procedure: (§2) Compounds are first prepared as 25 mg/ml solutions in ethanol as described above, and then diluted into 40 ml of water to prepare the final 0.25 mg/ml treatment solutions. Visual observations on solubilities (milky, clear, etc.) of the treatment solutions are noted. The treatment solutions are divided into two 20 ml portions, each in 50 ml plastic centrifuge tubes. In addition to treating seeds with solutions containing the test compounds, untreated seeds and seeds imbibed in ethanol-water solution (300 μl ethanol in 30 mls of water) are also included in this experiment as controls. In the latter case, 20 seeds are imbibed in 30 mls of solution for six hours.
(§3) Two soybean varieties are selected for testing: constitutively GA-deficient transgenic dwarf soybean line 719 (plasmid pMON29801, constitutive FMV promoter/asCPScc; which is a mixture of 719−2 and 719+17), and A3237, the wild-type parent material. […] After imbibition, seeds are removed from the test tubes, placed on wax paper to dry, and planted in bread pans containing farm soil amended with fertilizer at 20 seeds/pan. Seeds are covered with 0.5″ of vermiculite. Pans are transferred to the greenhouse, which had day/night temperatures of 86/68° F. (30/20° C.), and subirrigated. Illumination is at a light intensity of 300-400 μmolm^−2s^−1 photosynthetic photon flux; 16 hours light/8 hours dark. Subsequent waterings are also through sub-irrigation until the test is terminated three weeks later. Observations included the number of dwarf, intermediate, and tall plants; plant height; uniformity of rescue; and any visual effects.
(§4) All compounds are tested at final concentrations of 0.25, 0.025, and 0.0025 mg/ml except for GA9, which is tested at 0.125, 0.0125, and 0.00125 mg/ml. (The compounds are tested in Experiment I at only one concentration, i.e., 0.25 mg/ml). Test tubes contained […] of ethanol solution per tube. Final volumes are made up to 30 ml with deionized water. After shaking, the treatment solutions (15 ml each) are transferred to each of two 50 ml test tubes. Treatments 1 to 27 are performed on wild-type line A3237; treatments 28 to 54 are performed on constitutively GA-deficient transgenic dwarf soybean line 719 (a mixture of 719−2 and 719+17). Twenty seeds are used in each treatment. Dry seed, ethanol/water-imbibed seed (1% ethanol in water, v/v), and water-imbibed seeds are included as controls. Seeds are imbibed for 6 hours in the test solutions, then planted in bread pans containing Metromix 350 (The Scotts Company, Marysville, Ohio), and covered with 0.5″ Metro-mix. Covered pans are transferred to the greenhouse and subirrigated. Illumination is at a light intensity of 300-400 μmolm^−2s^−1 photosynthetic photon flux; 16 hours light/8 hours dark. Subsequent waterings are also through sub-irrigation until the test is terminated three weeks later. Observations included the number of dwarf, intermediate, and tall plants; plant height; uniformity of rescue; and any visual effects. Digital photographs are also taken.

[3] = tested on: GA-deficient transgenic soybean line 719 (R5); assay: Hilum treatment of soybean seeds, seedling growth and development, GA-deficient soybean; assay type: in vivo, Glycine max; parameters: key to Emergence timing / Hypocotyl length (6 DAP) / 1st internode length (12 DAP) / 3rd internode length (20 DAP) / 2nd internode length (12 DAP): pos: emergence faster/stem segment longer than controls; 0: emergence timing/stem segment length similar to controls; neg: emergence slower/stem segment shorter than controls; settings: for Lowest rate where biological activity is observed, 1st internode length (10 DAP) / Lowest rate where biological activity is observed, emergence timing / Lowest rate where biological activity is observed, hypocotyl length (5 DAP) / 1st internode length (12 DAP) / Emergence timing / Hypocotyl length (6 DAP): L719, hilum treatment; for Lowest rate where biological activity is observed, 1st internode length (10 DAP) / Lowest rate where biological activity is observed, emergence timing / Lowest rate where biological activity is observed, hypocotyl length (5 DAP): rate response; for 1st internode length (12 DAP) / Emergence timing / Hypocotyl length (6 DAP): single rate per compound 8.3-16.5 μg/seed; for activity on line 719 in terms of emergence timing and hypocotyl length: single rate, hilum, concentration that does not affect normal plant tissue
Procedure: as §1

[4] = tested on: wild-type soybean line A3237; assay: Experiment I greenhouse test, seed imbibition, wild-type soybean; settings: 0.25 mg/ml; seeds imbibed 5 hours
Procedure: Compounds are first prepared as 25 mg/ml solutions in ethanol as described above, and then diluted into 40 ml of water to prepare the final 0.25 mg/ml treatment solutions. Visual observations on solubilities (milky, clear, etc.) of the treatment solutions are noted. The treatment solutions are divided into two 20 ml portions, each in 50 ml plastic centrifuge tubes. In addition to treating seeds with solutions containing the test compounds, untreated seeds and seeds imbibed in ethanol-water solution (300 μl ethanol in 30 mls of water) are also included in this experiment as controls. […]
After imbibition, seeds are removed from the test tubes, placed on wax paper to dry, and planted in bread pans containing farm soil amended with fertilizer at 20 seeds/pan. Seeds are covered with 0.5″ of vermiculite. Pans are transferred to the greenhouse, which had day/night temperatures of 86/68° F. (30/20° C.), and subirrigated. Illumination is at a light intensity of 300-400 μmolm^−2s^−1 photosynthetic photon flux; 16 hours light/8 hours dark. Subsequent waterings are also through sub-irrigation until the test is terminated three weeks later. Observations included the number of dwarf, intermediate, and tall plants; plant height; uniformity of rescue; and any visual effects.

[5] = Particulate material present in solutions after mixing; assay type: physicochemical; settings: for Particulate material present, 100X Diln w/water: 0.25 mg/ml compound in water; for solubility in water during imbibition: 0.25 mg/ml treatment solutions; for Particulate material present, Initial Mixing: 25 mg/ml in absolute ethanol
Procedure: Each of the compounds noted above is weighed to the nearest 0.1 mg in a pre-tarred 1.5-ml polypropylene vial with a screw-top lid. Absolute ethanol is added to the weighed powder to prepare a 25 mg/ml solution. Solutions are thoroughly mixed using a vortex mixer. A stainless steel spatula is used to crush any particulate material remaining after extensive mixing. Vials are left overnight at room temperature, and then remixed to form the concentrated ethanol stock solutions. The presence of undissolved material is noted throughout this procedure.

[6] = tested on: wild-type soybeans (line A3237); assay: Summary of first two greenhouse experiments, elongation of wild-type soybeans; settings: 0.25 mg/ml solution (ethanol-water)
Procedure: as §2, §3, §4

Row | SMILES | Lowest rate where biological activity is observed, 1st internode length (10 DAP) (wild-type A3237 soybean) [μg/seed] | Lowest rate where biological activity is observed, emergence timing (wild-type A3237 soybean) [μg/seed] | Lowest rate where biological activity is observed, hypocotyl length (5 DAP) (wild-type A3237 soybean) [μg/seed] | 1st internode length (12 DAP) (wild-type A3237 soybean) | Emergence timing (wild-type A3237 soybean) | Hypocotyl length (6 DAP) (wild-type A3237 soybean) | effect in both the constitutive transgenic dwarf and wild-type soybean lines [1] | Observation on Transgenic Line 719 [1] | Rescue of GA-deficient soybeans [2] | Lowest rate where biological activity is observed, 1st internode length (10 DAP) [3] [μg/seed] | Lowest rate where biological activity is observed, emergence timing [3] [μg/seed] | Lowest rate where biological activity is observed, hypocotyl length (5 DAP) [3] [μg/seed] | 1st internode length (12 DAP) [3] | Emergence timing [3] | Hypocotyl length (6 DAP) [3] | activity on line 719 in terms of emergence timing and hypocotyl length [3] | Observation on Wild-Type Line A3237 [4] | Particulate material present, 100X Diln w/water [5] | solubility in water during imbibition [5] | Particulate material present, Initial Mixing [5] | also measured
1 | C=C1C[C@@]23CC[C@H]4[C@@](C)(CCC[C@@]4(C)C(=O)O)[C@@H]2CC[C@]1(O)C3 (single isomer, unassigned; ent-7) [steviol] | >100 | >100 | >100 | 0 | 0 | 0 | no substantial activity | 0 | 0 | >100 | 10 | 1 | 0 | pos | pos | biologically active | 0 | YES | less soluble in water during imbibition | YES | –
2 | C=C1C[C@]23C[C@H]1CC[C@H]2[C@@]12C=C[C@H](O)[C@@](C)(C(=O)O1)[C@H]2[C@@H]3C(=O)OC [GA7 methyl ester] | – | – | – | – | – | – | slight to medium elongation | 2 | 0 | – | – | – | – | – | – | – | 1 | YES | – | – | –
3 | C=C1C[C@]23C[C@H]1CC[C@H]2[C@]1(C)CCC[C@@](C)(C(=O)O)[C@H]1[C@@H]3C=O [GA12-aldehyde] | >100 | >100 | >100 | 0 | 0 | 0 | no substantial activity | 0 | 0 | >100 | 1 | 1 | 0 | pos | pos | biologically active | 0 | YES | less soluble in water during imbibition | – | –
4 | C=C1C[C@@]23CC[C@@H]4C(C)(C)CCC[C@@]4(C)[C@@H]2CC[C@@H]1C3 [kaurene] | – | – | – | 0 | 0 | 0 | no substantial activity | 0 | 0 | – | – | – | 0 | pos | 0 | – | 0 | YES | less soluble in water during imbibition | YES | Elongation of wild-type soybeans [6]: 0; Particulate material present, O/N Incubation ([5]; 25 mg/ml in ethanol, overnight at room temperature, remixed): YES
5 | C=C1C[C@]23C[C@H]1CC[C@H]2[C@@]12CC[C@H](O)[C@@](C)(C(=O)O1)[C@H]2[C@@H]3C(=O)OC [GA4 methyl ester] | – | – | – | – | – | – | slight to medium elongation | 1 | 0 | – | – | – | – | – | – | – | 1 | – | less soluble in water during imbibition | – | –
